Experiments:
AMARE = test: greenhouse pre-emergence herbicidal test; type: in vivo, Amaranthus retroflexus; settings: pre-emergence method, application rate 0.250 kg/ha, scale from 0 to 100
Excerpt: (§1) The seeds of the test plants were sown separately for each species. For the pre-emergence treatment, the active ingredients, which had been suspended or emulsified in water, were applied directly after sowing by means of finely distributing nozzles. The containers were irrigated gently to promote germination and growth and subsequently covered with transparent plastic hoods until the plants had rooted. This cover caused uniform germination of the test plants, unless this had been impaired by the active ingredients. Depending on the species, the plants were kept at 10-25° C. or 20-35° C., respectively. The test period extended over 2 to 4 weeks. During this time, the plants were tended, and their response to the individual treatments was evaluated. Evaluation was carried out using a scale from 0 to 100. 100 means no emergence of the plants, or complete destruction of at least the aerial moieties, and 0 means no damage, or normal course of growth. A moderate herbicidal activity is given at values of at least 60, a good herbicidal activity is given at values of at least 70, and a very good herbicidal activity is given at values of at least 85. The plants used in the greenhouse experiments were of the following species: [table]

APESV = test: greenhouse pre-emergence herbicidal test; type: in vivo, Apera spica-venti; settings: pre-emergence method, application rate 0.250 kg/ha, scale from 0 to 100
Excerpt: as §1

CC(C)(F)c1nc(N)nc(Nc2c(F)cccc2OC2CCCC2)n1 [Example 1, N2-[2-(Cyclopentoxy)-6-Fluoro-Phenyl]-6-(1-Fluoro-1-Methyl-Ethyl)-1,3,5-Triazine-2,4-Diamine]
herbicidal activity against AMARE (AMARE): very good (a very good herbicidal activity is given at values of at least 85)
herbicidal activity against APESV (APESV): good (a good herbicidal activity is given at values of at least 70)

— patent US10941122B2, “Diaminotriazine derivatives as herbicides” (BASF SE, priority 2014, dated 2021)
